Measured values: article PMC6795431, “Identification and characterisation of capidermicin, a novel bacteriocin produced by Staphylococcus capitis” (PLoS ONE, 2019)
“Also recorded” adds a separate entry of the source. Where no end group is shown, it is not given here. The star is where a group is joined. For = O=C*

Key:
[1] = Temperature stability, bioactivity by agar well diffusion; assay type: physicochemical; settings: purified peptide, 10, 30, 40, 50, 80, 90 or 121°C for 15 minutes; agar well diffusion with L. lactis HP
Experimental: (§1) The susceptibility of purified capidermicin peptide to temperature, pH and protease enzymes was investigated through well diffusion assays. To determine temperature stability the purified peptide was subjected to 10, 30, 40, 50, 80, 90, 121°C for 15 minutes. Bioactivity was then determined by carrying out an agar well diffusion assay with L. lactis HP as the bacterial indicator. To evaluate the susceptibility of the peptide to varying pH values, the purified peptide solution was adjusted to pH 2–11 using 1M HCl or 1M NaOH, respectively. After a brief vortex, the peptide was incubated at room temperature for 15 minutes, and the bioactivity was again determined with the well diffusion assay with L. lactis HP. The susceptibility of the peptide to proteolytic cleavage was analysed using trypsin, α-chymotrypsin, pepsin and proteinase K (Sigma-Aldrich). Protease enzymes were dissolved in 100 mM Tris-HCl– 10 mM CaCl2, to a final concentration of 100 μg/ml. Preparations of capidermicin were incubated with the various enzymes at 37°C for 4 hours and the bioactivity of capidermicin was reassessed using the well diffusion assay described above.

[2] = pH stability, bioactivity by agar well diffusion; assay type: physicochemical; settings: 15 minutes at room temperature, agar well diffusion with L. lactis HP
Experimental: as §1

trypsin = settings: cited from earlier work
Experimental: (§2) Similar findings have been reported for epidermicin NI01 [42] and lacticin Q [41]. While capidermicin is insensitive to α-chymotrypsin and pepsin, a 70% reduction in activity was observed when it was treated with proteinase K or trypsin. […] Resistance to proteases has been reported for other staphyloco ...

proteinase K = biological target: T1, proteinase K (Parengyodontium album, UniProt P06873); settings: previously observed; cited from earlier work
T1 construct: purchased Sigma-Aldrich
Experimental: as §2

T1 sequence (P06873 106-384): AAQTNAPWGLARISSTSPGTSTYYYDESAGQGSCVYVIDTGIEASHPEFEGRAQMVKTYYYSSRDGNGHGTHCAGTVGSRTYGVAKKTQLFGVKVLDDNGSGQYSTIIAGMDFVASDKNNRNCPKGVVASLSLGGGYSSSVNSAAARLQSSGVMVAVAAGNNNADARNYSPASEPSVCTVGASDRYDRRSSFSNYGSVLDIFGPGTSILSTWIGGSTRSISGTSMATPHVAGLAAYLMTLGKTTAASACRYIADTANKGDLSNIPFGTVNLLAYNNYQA

Row | Substance | Antimicrobial activity following heat treatment [1] | Bioactivity following exposure to pH 2–8 ([2]; pH adjusted with 1M HCl or 1M NaOH) | Decrease in zone of inhibition at pH 9–11 ([2]; pH adjusted with 1M NaOH) | Reduction in activity for trypsin (trypsin) | Reduction in activity for proteinase K (proteinase K)
1 | For-MSKVISALSKYGPKAVNWAKNHKGQIANWLLHGLSIPDIVQNVKNAVGIK [capidermicin] | retained; also recorded: unaffected | full bioactivity | 70% | – | –
2 | epidermicin NI01 | – | – | – | 50% | 75%
